For data set [1], the system named is Rattus norvegicus. The following applies: oral.
Another data set concerns Mus musculus. The following applies: oral, drinking water.
Data set [2] concerns Rattus norvegicus. The conditions noted are these: oral. This is another data set of the same source.
Where [3] appears, read: chronic, duration: 2 years, diet, M/F, reduced body weight, increased bun.
[4] abbreviates: chronic, duration: 2 years, diet, M/F, hematological effects (females).
Where [5] appears, read: developmental, M/F, reduced pup weight.
Where [6] appears, read: chronic, M/F, kidney damage and reduced lifespan.
[7] abbreviates: subchronic, duration: 90 days, diet, M/F, increased male spleen weight and che depression (females).
Setting [8] is: chronic, duration: 2 years, diet, M/F, reduced body weight gain (males) increased food and water consumption (males) and females.
Where [9] appears, read: developmental, M/F, reduced body weight in parents and pups during lactation.
The mark [10] stands for this setting: chronic, duration: 2 years, diet, M/F, reduced body weight.
Where [11] appears, read: chronic, duration: 6 months, M, Kunming, novel object test (discrimination index) + open field (outer zone entry events).
Setting [12] is: chronic, duration: 6 months, M, Kunming, open field (center square entry events) + open field (middle zone line cross events).
[13] abbreviates: chronic, duration: 6 months, drinking water, M/F, Sprague-Dawley, Morris water maze (escape time, acquisition, day 1).
Where [14] appears, read: developmental, drinking water, M/F, Wistar, generation: F1, F1: activity time (developmental phase III) + F1: open field (squares traveled, 9 min).
Setting [15] is: reproduction developmental, M/F, Increased incidence of hepatocellular changes including fatty change and vacuolation (M) increased susceptibility to stress factors (F).
Where [16] appears, read: developmental, diet, M/F, increased body weight and liver weight, reduced ossification and slightly dilated ureters in fetuses, reduced offspring weight gain, total ….
Setting [17] is: developmental, M/F, reduced pup survival.
Setting [18] is: subchronic, duration: 90 days, diet, M/F, reduced body weight.

“And” between values parts separate entries of the source, which are not always exact repeats. Equal values may be shown once.

Usually NOAEL stands for the highest dose or exposure tested at which no adverse effect was seen. Usually LOAEL stands for the lowest tested level that showed an adverse finding.

In the case of `CCN(CC)C(=O)SCc1ccc(Cl)cc1` [Thiobencarb], in the data set on Rattus norvegicus [1] (setting [3]), the LEL turned out to be 5 mg/kg-day and the NOEL came to 1 mg/kg-day.
Consider `CCNc1nc(NC(C)(C)C)nc(SC)n1` [Terbutryn], for which, in the data set with Rattus norvegicus [1] (setting [4]), the LEL came out at 15 mg/kg-day and the NOEL turned out to be 0.1 mg/kg-day.
In the data set on Rattus norvegicus [1] (setting [5]), `C=C(C)[C@H]1Cc2c(ccc3c2O[C@@H]2COc4cc(OC)c(OC)cc4[C@@H]2C3=O)O1` [Rotenone] yielded an LEL of 1.88 mg/kg-day and an NOEL of 0.38 mg/kg-day.
`[O]=[V](=[O])[O][V](=[O])=[O]` [Vanadium oxide (V2O5)] yielded a no observed adverse effect level (NOAEL) in the data set with Rattus norvegicus [1] (chronic, reduced hair cystine) of 0.89 mg/kg-day.
Regarding `CCOC(=O)COC(=O)c1ccccc1C(=O)OCC` [Ethyl phthalyl ethyl glycolate], in the data set on Rattus norvegicus [1] (setting [6]), the LOAEL came out at 2500 mg/kg-day and the NOEL worked out at 250 mg/kg-day.
Take `CCCCOC(=O)COC(=O)c1ccccc1C(=O)OCCCC`: the NOEL in the data set on Rattus norvegicus [1] (chronic, no effects) is 1000 mg/kg-day.
In the data set on Rattus norvegicus [1] (setting [7]), `CC(C)OC(=O)Nc1ccccc1` [Propham] yielded an LEL of 100 mg/kg-day and an NOEL of 50 mg/kg-day.
In turn, `ClCC(Cl)(Cl)Cl` [1,1,1,2-Tetrachloroethane] showed an LOAEL in the data set on Rattus norvegicus [1] (chronic, gavage, M/F, mineralization of the kidneys (males), hepatic clear cell change (females)) of 125 mg/kg-day.
Take `CC1(C)[C@H](C(=O)O[C@H](C#N)c2cccc(Oc3ccccc3)c2)[C@@H]1C(Br)C(Br)(Br)Br` (stereo partly drawn) [Tralomethrin]: in the data set on Rattus norvegicus [1] (setting [8]), the LEL is 3 mg/kg-day and the NOEL was 0.75 mg/kg-day. Further, in the data set with Rattus norvegicus [1] (setting [9]), the LEL came to 3 mg/kg-day and the NOEL came out at 0.75 mg/kg-day.
For `CCCCN(CCCC)SN(C)C(=O)Oc1cccc2c1OC(C)(C)C2` [Carbosulfan], in the data set on Rattus norvegicus [1] (setting [10]), the LEL was found to be 25 mg/kg-day and the NOEL came out at 1 mg/kg-day.
The like results for `Cn1c(-c2ccccc2)cc(-c2ccccc2)[n+]1C` [Difenzoquat] were, in that order, 125 mg/kg-day and 25 mg/kg-day.
`C1CSCCS1` [1,4-Dithiane] displayed an LOAEL in the data set on Rattus norvegicus [1] (subchronic, duration: 90 days, gavage, M/F, nasal olfactory lesions) of 105 mg/kg-day.
Consider `[F-]` [Fluoride], for which the LOEL in the data set with Mus musculus (chronic, duration: 6 months, M/F, Kunming, active avoidance (shuttle box, 1st trial number where 3 consecutive conditioned avoidance responses occurred) + active avoidance (shuttle …) is 2.63 mg/kg-day; in the data set on Mus musculus (setting [11]), 11.5 mg/kg-day; in the data set with Mus musculus (setting [12]), 5.63 mg/kg-day; in the data set with Mus musculus (chronic, duration: 6 months, M, Kunming, open field (middle zone entry events) + open field (outer zone line cross events) + open field (total distance moved)) it was 2.82 mg/kg-day; in the data set on Mus musculus (subchronic, duration: 90 days, M, Swiss, open field (defecation) + open field (grooming events) + open field (rearing events) + open field (squares crossed)) it was 9.58 mg/kg-day; in the data set with Rattus norvegicus [2] (setting [13]) it was 5.96 mg/L urine. Also, the LOEL turned out to be 19 mg/kg-day in the data set with Rattus norvegicus [2] (chronic, duration: 16 weeks, drinking water, F, Sprague-Dawley, activity box (groom/attention cluster initiations) + activity box (groom/attention cluster total time) + activity box (groom/explore cluster…); 19 mg/kg-day in the data set with Rattus norvegicus [2] (chronic, duration: 16 weeks, drinking water, M, Sprague-Dawley, activity box (attention cluster, total time) + activity box (groom cluster, initiations) + activity box (groom cluster, total time) + …); 10.4 mg/kg-day with Rattus norvegicus [2] (chronic, duration: 104 days, drinking water, M, Sprague-Dawley, tail immersion (withdrawal latency to heat, day 112) + Von Frey hair test (withdrawal threshold, day 104)); 5.29 mg/kg-day with Rattus norvegicus [2] (developmental, drinking water, F, Wistar, generation: F1, F1: pain response (latency time to respond to hot plate)); 3.27 mg/kg-day in the data set with Rattus norvegicus [2] (developmental, drinking water, M/F, Sprague-Dawley, generation: F1, F1: Morris water maze (escape time, acquisition, average over days 1-4) + F1: Morris water maze (platform crossing, probe test, day 5) + F1…); 5.29 mg/kg-day in the data set on Rattus norvegicus [2] (developmental, drinking water, M/F, Wistar, generation: F1, F1: Morris water maze (number of errors, acquisition) + F1: Morris water maze (time to find platform, probe test) + F1: open field (face …). In addition, the LOEL is 16 mg/kg-day in the data set on Rattus norvegicus [2] (developmental, drinking water, M/F, Wistar, generation: F1, F1: T-maze (number of errors, retention phase) + F1: T-maze (number of sessions to reach learning criterion)); 1.06 mg/kg-day in the data set on Rattus norvegicus [2] (setting [14]); 0.21 mg/kg-day in the data set with Rattus norvegicus [2] (developmental, drinking water, M/F, Wistar, generation: F1, F1: open field (face scrubbing events, 9 min)); 16 mg/kg-day with Rattus norvegicus [2] (developmental, drinking water, M/F, Wistar, generation: F2, F2: T-maze (number of errors, retention phase) + F2: T-maze (number of sessions to reach learning criterion)); 16 mg/kg-day in the data set on Rattus norvegicus [2] (developmental, drinking water, M/F, Wistar, generation: F3, F3: T-maze (number of errors, retention phase) + F3: T-maze (number of sessions to reach learning criterion)); 5.29 mg/kg-day in the data set on Rattus norvegicus [2] (developmental, drinking water, M, Wistar, generation: F1, F1: pain response (latency time to respond to hot plate)). In addition, the LOEL with Rattus norvegicus [2] (subchronic, duration: 6 weeks, drinking water, F, Sprague-Dawley, activity box (groom cluster, initiations) + activity box (groom cluster, total time) + activity box (groom, initiations) + activity box (…) was determined as 21.4 mg/kg-day; with Rattus norvegicus [2] (subchronic, drinking water, M/F, Sprague-Dawley, generation: P0, P0: Morris water maze (escape time, acquisition, average over days 1-4) + P0: Morris water maze (platform crossing, probe test, day 5) + P0…), 3.27 mg/kg-day. In addition, the NOEL came out at 26.3 mg/kg-day with Mus musculus (chronic, duration: 6 months, M/F, Kunming, active avoidance (shuttle box, response latency to conditioned avoidance response averaged over 150 trials)); 5.63 mg/kg-day with Mus musculus (setting [11]); 11.5 mg/kg-day in the data set with Mus musculus (chronic, duration: 6 months, M, Kunming, novel object test (time exploring familiar object, long-term memory phase) + novel object test (time exploring familiar object, short-term …); 2.82 mg/kg-day in the data set on Mus musculus (setting [12]); 9.58 mg/kg-day in the data set with Mus musculus (subchronic, duration: 90 days, M, Swiss, tail suspension test (immobility time, total 6 min)); 6.13 mg/kg-day in the data set with Rattus norvegicus [2] (chronic, duration: 4 months, diet, M, Hooded, T-maze, multiple (number of errors, acquisition, trial 1) + T-maze, multiple (number of errors, retention, trial 9) + T-maze, multiple (time…). The NOEL with Rattus norvegicus [2] (setting [13]) was 2.59 mg/L urine; in the data set on Rattus norvegicus [2] (chronic, duration: 6 months, drinking water, M/F, Sprague-Dawley, Morris water maze (escape time, acquisition, day 5)), 5.96 mg/L urine; with Rattus norvegicus [2] (chronic, duration: 16 weeks, drinking water, F, Sprague-Dawley, activity box (attention cluster, total time) + activity box (groom cluster, initiations) + activity box (groom cluster, total time) + …) it was 19 mg/kg-day; in the data set with Rattus norvegicus [2] (chronic, duration: 16 weeks, drinking water, M, Sprague-Dawley, activity box (groom/attention cluster, total time) + activity box (head turn, initiations) + activity box (head turn, total time)), 19 mg/kg-day; in the data set with Rattus norvegicus [2] (chronic, duration: 104 days, drinking water, M, Sprague-Dawley, Von Frey hair test (withdrawal threshold, day 0)) it was 20.8 mg/kg-day; with Rattus norvegicus [2] (chronic, duration: 195 days, drinking water, M, Lou/C, tail immersion (withdrawal latency to heat, 195 days) + Von Frey hair test (withdrawal threshold, 195 days) + Von Frey hair test (withdrawal…), 20.8 mg/kg-day. Besides, the NOEL was 1.06 mg/kg-day with Rattus norvegicus [2] (developmental, drinking water, M/F, Wistar, generation: F1, F1: Morris water maze (number of errors, acquisition) + F1: Morris water maze (time to find platform, probe test)); 5.29 mg/kg-day in the data set with Rattus norvegicus [2] (developmental, drinking water, M/F, Wistar, generation: F1, F1: activity time (developmental phase I) + F1: activity time (developmental phase II) + F1: activity time (developmental phase III) + F1: …); 0.21 mg/kg-day in the data set with Rattus norvegicus [2] (setting [14]); 21.4 mg/kg-day with Rattus norvegicus [2] (subchronic, duration: 6 weeks, drinking water, F, Sprague-Dawley, activity box (attention cluster, total time) + activity box (groom/attention cluster, total time) + activity box (groom/explore cluster, …). The “NOEL (mg/kg ash femur)” value with Rattus norvegicus [2] (chronic, duration: 8 months, drinking water, F, Sprague-Dawley, acquisition of the bar press response (days to reach learning criteria) + acquisition of the bar press response (maximum response)) turned out to be 14800.
In the data set with Rattus norvegicus [1] (setting [15]), `CC(C)C(O)(c1ccc(OC(F)(F)F)cc1)c1cncnc1` (stereo not drawn) [Flurprimidol] showed an LEL of 7.3 mg/kg-day and an NOEL of 1.8 mg/kg-day.
In the data set on Rattus norvegicus [1] (setting [16]), `CCCCC(CC)COC(=O)CCCCC(=O)OCC(CC)CCCC` (stereo not drawn) [Bis(2-ethylhexyl)hexanedioate] registered an LOAEL of 1080 mg/kg-day and an NOAEL of 170 mg/kg-day.
In the case of `COP(=O)(OC)O/C(C)=C/C(=O)N(C)C` [Dicrotophos], in the data set with Rattus norvegicus [1] (setting [17]), the LEL came out at 0.25 mg/kg-day and the NOEL amounted to 0.1 mg/kg-day.
`NS(=O)(=O)[O-].[NH4+]` [Ammonium sulfamate]: in the data set on Rattus norvegicus [1] (setting [18]), the LEL came to 500 mg/kg-day; the NOEL is 250 mg/kg-day and 214 mg/kg-day.
In the case of `COC(=O)NS(=O)(=O)c1ccc(N)cc1` [Asulam], the LEL in the data set with Rattus norvegicus [1] (reproduction developmental, F, reduced ovarian weight, lower liver/body weight) was 50 mg/kg-day.

(Values after EPA's ToxValDB 9.5.)
